Reference: patent US8609836B2, “4-aryl-2-anilino-pyrimidines” (Janssen Pharmaceutica NV, priority 2008, dated 2013)

Legend:
[1] = system: A2780; assay: Cellular proliferation assay (Alamar blue), A2780; format: cell-based; details: Homo sapiens, 10% FCS, 72 hours with compound, Alamar blue 24 h, read-out: A2780 (cellular proliferation assay, Table 4) (converted)
Summary of the method: (§1)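 Alamar blue conversion, quantified fluorimetrically (544 nm/590 nm), gave viable cell number relative to untreated controls; dye time 4 h for HCT-116, 6 h for U87-MG, 24 h for A2780 and MDA-MB-231. Compound exposure lasted 72 h, after 24 h pre-seeding, with 10% FCS, 37 °C, 5% CO2.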

[2] = system: U87-MG; assay: Cellular proliferation assay (Alamar blue), U87-MG; format: cell-based; details: Homo sapiens, U-87 MG; 10% FCS; 72 hours with compound; Alamar blue 6 h; read-out: U87-MG (cellular proliferation assay, Table 4) (converted)
Summary of the method: as §1

[3] = molecular target: AuroraB (h) (Homo sapiens, UniProt Q96GD4); assay: Aurora-B human kinase inhibition, SPA; format: biochemical; details: read-out: AuroraB pIC50 (converted)
Sequence of AuroraB (h) (Q96GD4 whole entry): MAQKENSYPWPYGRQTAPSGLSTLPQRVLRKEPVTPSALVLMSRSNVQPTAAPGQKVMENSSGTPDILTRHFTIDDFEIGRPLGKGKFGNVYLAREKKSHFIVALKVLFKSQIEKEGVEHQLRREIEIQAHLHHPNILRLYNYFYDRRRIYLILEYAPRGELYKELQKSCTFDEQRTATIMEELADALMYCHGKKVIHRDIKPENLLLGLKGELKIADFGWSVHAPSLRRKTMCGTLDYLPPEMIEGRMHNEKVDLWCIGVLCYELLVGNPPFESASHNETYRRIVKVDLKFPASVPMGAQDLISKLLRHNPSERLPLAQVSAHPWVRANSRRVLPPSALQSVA
Summary of the method: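 AuroraB (0.5 μg/ml) phosphorylates 3 μM biotin-peptide using 0.5 μM ATP spiked with 33P-ATP in Hepes pH 7.5 with 3 mM MgCl2 and MnCl2, for 60 min at room temperature. EDTA stop solution carries streptavidin scintillant beads, and the captured radiolabel is imaged.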

[4] = molecular target: PLK3 (h) (Homo sapiens, UniProt Q9H4B4); assay: PLK3 human kinase inhibition, SPA; format: biochemical; details: read-out: PLK3 pIC50 (converted)
Sequence of PLK3 (h) (Q9H4B4 whole entry): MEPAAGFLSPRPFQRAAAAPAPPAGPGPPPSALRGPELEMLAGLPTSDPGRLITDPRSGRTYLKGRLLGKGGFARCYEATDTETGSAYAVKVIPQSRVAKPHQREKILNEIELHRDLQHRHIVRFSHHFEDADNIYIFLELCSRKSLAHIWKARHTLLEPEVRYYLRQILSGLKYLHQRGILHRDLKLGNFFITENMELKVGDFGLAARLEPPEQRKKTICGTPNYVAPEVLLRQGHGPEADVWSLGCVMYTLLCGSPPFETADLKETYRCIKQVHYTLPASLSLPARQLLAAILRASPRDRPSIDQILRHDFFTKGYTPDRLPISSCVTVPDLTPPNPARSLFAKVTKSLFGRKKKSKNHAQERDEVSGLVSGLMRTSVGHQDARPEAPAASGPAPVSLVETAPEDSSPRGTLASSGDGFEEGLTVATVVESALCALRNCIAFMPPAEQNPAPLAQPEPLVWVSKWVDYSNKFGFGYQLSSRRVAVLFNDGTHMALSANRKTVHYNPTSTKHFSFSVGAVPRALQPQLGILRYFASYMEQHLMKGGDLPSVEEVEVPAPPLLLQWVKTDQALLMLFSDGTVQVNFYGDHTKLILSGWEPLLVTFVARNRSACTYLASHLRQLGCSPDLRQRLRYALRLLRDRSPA
Summary of the method: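 Radiometric scintillation proximity format at pH 8.0 (Hepes, MnCl2, DTT). The 2 μM biotin-peptide substrate is phosphorylated by PLK3 (h) (30 μg/ml) using 0.1 μM ATP traced with 33P, for 20 min at room temperature. EDTA stop; phosphopeptide captured on streptavidin beads and imaged.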

[5] = molecular target: CDK1/CyclinB (h) (Homo sapiens, UniProt P06493); assay: CDK1/CyclinB human kinase inhibition, Invitrogen's FRET assay (Z'lyte); format: biochemical; details: read-out: CDK1 pIC50 (converted)
Sequence of CDK1/CyclinB (h) (P06493 whole entry): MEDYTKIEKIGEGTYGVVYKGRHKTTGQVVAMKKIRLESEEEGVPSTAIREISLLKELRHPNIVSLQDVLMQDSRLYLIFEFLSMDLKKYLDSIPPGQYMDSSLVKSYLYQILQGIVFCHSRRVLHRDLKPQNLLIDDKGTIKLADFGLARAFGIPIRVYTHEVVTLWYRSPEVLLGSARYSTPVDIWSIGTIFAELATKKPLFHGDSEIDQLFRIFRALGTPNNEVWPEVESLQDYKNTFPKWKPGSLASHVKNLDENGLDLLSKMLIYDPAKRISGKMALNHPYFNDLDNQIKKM
Sequence of CDK1/CyclinB (h) (P14635 whole entry partner): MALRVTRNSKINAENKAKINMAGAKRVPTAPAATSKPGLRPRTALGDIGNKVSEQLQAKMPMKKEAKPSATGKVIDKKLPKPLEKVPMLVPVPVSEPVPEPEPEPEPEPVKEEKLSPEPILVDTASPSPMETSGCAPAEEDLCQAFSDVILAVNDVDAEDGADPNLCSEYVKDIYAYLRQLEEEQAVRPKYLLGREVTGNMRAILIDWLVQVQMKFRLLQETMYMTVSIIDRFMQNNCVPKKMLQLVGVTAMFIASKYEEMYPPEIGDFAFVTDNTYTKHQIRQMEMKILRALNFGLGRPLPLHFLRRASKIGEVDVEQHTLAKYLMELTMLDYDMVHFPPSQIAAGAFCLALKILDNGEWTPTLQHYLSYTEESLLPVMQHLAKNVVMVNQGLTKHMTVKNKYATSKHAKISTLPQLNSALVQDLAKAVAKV
Summary of the method: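 Read-out is the 460 nm/538 nm emission ratio (390 nm excitation) after a 60 min protease development step. Before that, 10 μM ATP and 2 μM Z'lyte Ser/Thr peptide 12 react 60 min at room temperature with 0.2 μg/ml human CDK1/CyclinB in Hepes pH 7.5 containing MgCl2, EGTA and Brij-35.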

[6] = molecular target: PLK2 (h) (Homo sapiens, UniProt Q9NYY3); assay: PLK2 human kinase inhibition, SPA; format: biochemical; details: read-out: PLK2 pIC50 (converted)
Sequence of PLK2 (h) (Q9NYY3 whole entry): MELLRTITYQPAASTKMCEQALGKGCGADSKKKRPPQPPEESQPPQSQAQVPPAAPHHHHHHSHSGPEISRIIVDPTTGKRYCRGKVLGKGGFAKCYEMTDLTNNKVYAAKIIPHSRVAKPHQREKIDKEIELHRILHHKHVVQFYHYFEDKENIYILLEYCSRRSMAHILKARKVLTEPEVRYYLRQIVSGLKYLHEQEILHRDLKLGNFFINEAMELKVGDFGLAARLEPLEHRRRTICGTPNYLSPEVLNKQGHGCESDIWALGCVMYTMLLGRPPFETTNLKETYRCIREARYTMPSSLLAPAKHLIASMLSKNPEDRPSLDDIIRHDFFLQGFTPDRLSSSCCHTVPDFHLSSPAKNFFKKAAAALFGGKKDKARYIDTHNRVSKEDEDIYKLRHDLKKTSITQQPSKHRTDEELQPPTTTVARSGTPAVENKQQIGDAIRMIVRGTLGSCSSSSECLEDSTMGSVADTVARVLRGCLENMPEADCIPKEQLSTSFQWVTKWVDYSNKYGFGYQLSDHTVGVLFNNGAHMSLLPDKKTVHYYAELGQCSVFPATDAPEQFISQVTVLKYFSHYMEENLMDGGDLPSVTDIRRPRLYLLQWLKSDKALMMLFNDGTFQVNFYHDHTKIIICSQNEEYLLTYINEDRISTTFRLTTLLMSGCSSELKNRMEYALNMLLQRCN
Summary of the method: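 33P incorporation into a biotinylated peptide (2 μM) was captured on streptavidin PVT beads and imaged on Leadseeker. Enzyme at 30 μg/ml, ATP 0.1 μM with 2 nM [γ-33P]ATP, Hepes pH 8.0 with MnCl2 and DTT. Incubation was 20 min at room temperature.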

[7] = system: HCT-116; assay: Cellular proliferation assay (Alamar blue), HCT-116; format: cell-based; details: Homo sapiens, 10% FCS, 72 hours with compound, Alamar blue 4 h
Summary of the method: as §1

[8] = system: H1299; assay: Cellular proliferation assay (Alamar blue), H1299; format: cell-based; details: Homo sapiens, NCI-H1299; 10% FCS; 72 hours with compound; Alamar blue 4 h
Summary of the method: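 This proliferation assay on NCI-H1299 cells used an initial 24-hour compound-free incubation after seeding, followed by 72 hours of compound treatment with 10% FCS serum at 37° C. and 5% (v/v) CO2. Viable cells were quantified by a 4 h Alamar blue incubation and fluorescent plate reading at 544 nm/590 nm, and effects were expressed relative to control cells.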

[9] = molecular target: CDK4/CyclinD1 (h) (Homo sapiens, UniProt P11802); assay: CDK4/CyclinD1 human kinase inhibition, SPA with GST-pRb substrate; format: biochemical; details: read-out: CDK4 pIC50 (converted)
Sequence of CDK4/CyclinD1 (h) (P11802 whole entry): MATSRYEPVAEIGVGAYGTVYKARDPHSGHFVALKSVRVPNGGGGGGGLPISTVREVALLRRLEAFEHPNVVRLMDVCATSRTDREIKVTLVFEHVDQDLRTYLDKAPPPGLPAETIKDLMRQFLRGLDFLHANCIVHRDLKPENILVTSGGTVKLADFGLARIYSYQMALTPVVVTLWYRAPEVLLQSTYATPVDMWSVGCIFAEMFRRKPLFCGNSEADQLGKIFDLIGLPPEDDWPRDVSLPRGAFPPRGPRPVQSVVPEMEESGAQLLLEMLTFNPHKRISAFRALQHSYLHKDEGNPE
Sequence of CDK4/CyclinD1 (h) (P24385 whole entry partner): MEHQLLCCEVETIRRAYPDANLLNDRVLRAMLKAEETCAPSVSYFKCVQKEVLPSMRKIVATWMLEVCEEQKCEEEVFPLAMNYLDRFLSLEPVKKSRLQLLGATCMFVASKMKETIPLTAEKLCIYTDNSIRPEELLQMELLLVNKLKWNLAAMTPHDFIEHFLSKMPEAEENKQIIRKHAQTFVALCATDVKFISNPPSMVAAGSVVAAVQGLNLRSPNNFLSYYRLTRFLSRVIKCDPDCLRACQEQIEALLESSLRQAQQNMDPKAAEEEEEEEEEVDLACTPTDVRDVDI
Summary of the method: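 Scintillation proximity format: after EDTA/Triton stop containing glutathione SPA beads, 33P incorporation was counted. The reaction ran 60 min at room temperature in Hepes pH 7.5 with NaF, MgCl2, DTT, using 2.5 μg/ml human CDK4/CyclinD1, 40 μg/ml GST-pRb substrate and 2 nM [γ-33P]ATP.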

IC50 [1]: > 10 µM | IC50 [2]: > 10 µM | IC50 [3]: > 10 µM | IC50 [4]: > 10 µM | IC50 [5]: > 10 µM | IC50 [6]: > 10 µM | IC50 [7]: > 10 µM | IC50 [8]: > 10 µM | IC50 [9]: > 10 µM
Structure (SMILES): COc1ccc2cc1CN(C)CCCNC(=O)[C@@H]1CCCN1Cc1cccc(c1)Nc1nccc-2n1 [Compound 180]
